Laboratory results taken from publication PMC7571160, “Dibromopinocembrin and Dibromopinostrobin Are Potential Anti-Dengue Leads with Mild Animal Toxicity” (Molecules, 2020).
Read-outs that look alike come from different tables or passages of the source.

Columns and labels:
[1] = test system: dengue virus serotype 2 (DENV2), New Guinea C strain; assay: DENV2 NGC effective concentration (EC50) test in LLC/MK2 cells, plaque titration; type: cell-based; details: for EC50: Dengue virus, DENV2 NGC in LLC/MK2 cells, MOI 0.1, 72 h, plaque titration; for SI NGC (CC50/EC50): LLC/MK2 CC50 / DENV2 NGC EC50
Method: (§1) LLC/MK2 were seeded at 5 × 10^4 cells per well of 24-well plate in growth medium and incubated overnight at 37 °C under 5% CO2. Cells were infected with DENV2 NGC at the multiplicity of infection (MOI) of 0.1 for 1 h with gentle rocking every 15 min. Cells were washed with PBS and incubated with MEM supplemented with 1% fetal bovine serum, 100 I.U./mL penicillin, and 100 μg/mL streptomycin. The compound was added to the virus-infected cells during and after infection. The cells were incubated for 72 h, unless otherwise indicated, at 37 °C under 5% CO2. Supernatants were collected and the viral infectivity was analyzed by 96-well plaque titration. Data were plotted and the EC50 values were calculated by nonlinear regression analysis. Each concentration was tested in duplicate and the results were reported as the means and standard deviation of three independent experiments. The selectivity index was calculated from the ratio of CC50 and EC50. Moreover, additional EC50s of TH002 and TH011 were also taken from Huh-7 (8 × 10^4 cells) and DENV2 16,681 (MOI of 1). Supernatants were collected after 72 h incubation for plaque titration EC50 values were calculated by nonlinear regression analysis. Data were presented by means and standard errors of three independent experiments.

[2] = Cytotoxic concentration (CC50) test, MTS, LLC/MK2; type: cell-based, Macaca mulatta (rhesus monkey); details: rhesus monkey, LLC/MK2 cells
Method: (§2) LLC/MK2, THP-1, HEK-293, HepG2, or Huh-7 cells were seeded at 10^4 cells per well of 96-well plate and incubated overnight. Compounds were prepared to 6-10 different concentrations in filter-sterilized dimethylsulfoxide (Merck®, Darmstadt, Germany) before addition to the cells. The plates were incubated for 48 h before the MTS reagent (Promega®, Madison, WI, USA) was added to cells according to the manufacturer's protocol and incubated for 4 h before analysis by spectrophotometry at […]. Huh-7 cytotoxicity was assessed by the Alamar Blue assay (Invitrogen®, Waltham, MA, USA) and read by fluorometry at the excitation and emission wavelengths at 570 and 600 nm, respectively. Each compound was tested in triplicate. Cytotoxic concentrations (CC50) were calculated while using non-linear regression analysis and the results were reported as means and standard deviation of three independent experiments.

[3] = Solubility observations in culture media and vehicles; type: physicochemical; details: for Concentration above which compound was only partially dissolved: cell culture test conditions; for Dissolution in culture media, DMSO and NSS: data not shown
[4] = test system: DENV2; parameters: method as in PMID 29360474; details: cited from earlier work
[5] = test system: DENV 4; parameters: method as in PMID 29360474; details: read-out: DENV4 EC50; cited from earlier work
[6] = test system: DENV NS3 protease; details: cited from earlier work
[7] = test system: DENV2 16681; assay: DENV2 16681 EC50 test in Huh-7 cells, plaque titration; type: cell-based, dengue virus serotype 2; details: for EC50: Dengue virus, DENV2 16681 in Huh-7 cells, MOI 1, 72 h, plaque titration; for SI (16681) (CC50/EC50): Huh-7 CC50 / DENV2 16681 EC50
Method: as §1

[8] = Cytotoxic concentration (CC50) test, MTS, THP-1; type: cell-based; details: human, THP-1 cells, THP-1, 48 h
Method: as §2

[9] = Cytotoxic concentration (CC50) test, MTS, HEK-293; type: cell-based; details: human, HEK-293 cells, HEK-293, 48 h
Method: as §2

[10] = Cytotoxic concentration (CC50) test, MTS, HepG2; type: cell-based; details: human, HepG2 cells, HepG2, 48 h
Method: as §2

[11] = Cytotoxic concentration (CC50) test, Alamar Blue, Huh-7; type: cell-based; details: human, Huh-7 cells; Huh-7, Alamar Blue
Method: as §2

[12] = test system: C57BL/6 mice; assay: Animal toxicity study, intravenous administration; type: in vivo, mouse; details: 10 mg/kg intravenous
Method: The animal care and use protocol identification number 016-2562 was approved by the Institutional Animal Care and Use Committee (CU-ACUP) of the Faculty of Medicine, Chulalongkorn University, Bangkok, Thailand, based on the National Institutes of Health, USA’s criteria for the use and treatment of laboratory animals. Male 8-week-old C57BL/6 mice purchased from the National Laboratory Animal Center, Nakhornpathom, Thailand were used in the experiments. TH011 and TH002 were diluted with 10% DMSO in normal saline solution. The preparations were intravenously administered at the concentration of 10 mg/kg through a tail vein (n = 5/group). The 10% DMSO in normal saline solution was used as vehicle control. Blood were collected through tail vein nicking at day one, three, and eight after administration and the serum samples were kept at −80 °C until analysis. Renal function (serum creatinine; Scr) and liver function (serum alanine transaminase; ALT) were measured by colorimetric assays while using QuantiChromTM (DICT-500, BioAssay, Hayward, CA, USA) and EnzyChrom (EALT-100, BioAssay), respectively.

[13] = test system: DENV envelope-induced fusion; assay: Fusion inhibition study in C6/36 cells; type: cell-based, dengue virus serotype 2; details: 10 µM, DENV2 NGC-infected C6/36 cells, 0.5 M MES pH 5.5
Method: C6/36 were seeded at 1 × 10^5 cells per well of 24-well plate MEM that was supplemented with 10% FBS and incubated overnight at 28 °C. Cells were infected with the virus at the multiplicity of infection (MOI) of 1 for 1 h at 28 °C. Compounds TH002 and TH011 were diluted in DMSO and added to the infected cells to the final concentration of 10 µM in 1% DMSO after DENV2 NGC (M.O.I. of 1) infection. Cells were incubated with MEM supplemented with 1% fetal bovine serum for 48 h before the addition of 0.5 M MES. Cells were incubated for an additional 24–48 h at 28 °C until the fused cells were visualized under light microscope.
Figure S5. Fusion inhibition assay; TH002 and TH011 (10 µM) were incubated with the DENV2-infected cells for
2 days before addition of 0.5 M MES, pH 5.5. The 4G2 antibody was an inhibitor of DENV envelope fusion and
was used as a control. Pos and Neg were abbreviated from positive (DENV) and negative (media-only) controls,
(1 picture or pasted object on this page, not shown here)

[14] = test system: dengue virus serotype 2 (DENV2), New Guinea C strain; parameters: method as in Srivarangkul et al. 2018 [11]; details: ref Srivarangkul et al. 2018 [11]; read-out: DENV2 NGC EC50; cited from earlier work
[15] = test system: LLC/MK2 cells; parameters: method as in Srivarangkul et al. 2018 [11]; details: ref Srivarangkul et al. 2018 [11]; cited from earlier work
[16] = test system: Zika viruses; parameters: method as in PMID 30959074; details: read-out: Zika virus EC50; cited from earlier work
[17] = test system: DENV NS5 polymerase; parameters: method as in PMID 22050318; details: cited from earlier work
[18] = parameters: method as in PMID 25744566; details: rat, intravenous, 10 mg, single dose; cited from earlier work
[19] = parameters: method as in PMID 25744566; details: human, 20 mg, iv drip; cited from earlier work

## COc1cc2c(c(O)c1I)C(=O)CC(c1ccccc1)O2 (stereo not drawn) [TH018, 6-iodo-5-hydroxy-7-methoxyflavanone]
[1]
  EC50: 4.1 ± 1.84 µM
  SI NGC (CC50/EC50): >6.0945
[2]
  CC50 at 48 h: > 25 µM
[3]
  Concentration above which compound was only partially dissolved: > 25 µM

## COc1cc2c(c(O)c1C)C(=O)CC(c1ccccc1)O2 (stereo not drawn) [6-methylpinostrobin]
[4]
  EC50: 16 ± 5.38 µM
[5]
  EC50: 11.7 ± 6.04 µM

## COc1cc(O)c2c(c1)O[C@H](c1ccccc1)CC2=O [TH019, pinostrobin]
[1]
  EC50: 10.8 ± 1.63 µM
  SI NGC (CC50/EC50): 7.3242
[2]
  CC50 at 48 h: 78.8 ± 2.92 µM
[6]
  DENV NS3 protease IC50: 90.48 µg/mL
  Ki: 345 ± 70 µM

## COc1c(Br)c(O)c2c(c1Br)OC(c1ccccc1)CC2=O (stereo not drawn) [TH002, 6,8-dibromo-5-hydroxy-7-methoxyflavanone]
[1]
  EC50: 5.86 ± 0.507 µM
  SI NGC (CC50/EC50): >17.0745,
[7]
  EC50: 3.19 µM
  SI (16681) (CC50/EC50): (23.9342)
[2]
  CC50 at 48 h: > 100 µM
[8]
  CC50 at 48 h: 51.8 ± 2.3 µM
[9]
  CC50 at 48 h: > 100 µM
[10]
  CC50 at 48 h: 49.9 ± 2.7 µM
[11]
  CC50 at 48 h: 76.4 ± 7.2 µM
[12]; day 1 and 3
  ALT levels (hepatotoxicity): mildly elevated
[12]; day 8
  ALT levels (hepatotoxicity): decreased to normal
[13]
  Inhibition of DENV envelope-induced fusion under acidic pH: no fusion inhibition observed
[3]
  Dissolution in culture media, DMSO and NSS: completely dissolved

## O=C1CC(c2ccccc2)Oc2cc(O)cc(O)c21 (stereo not drawn) [TH022, 5,7-dihydroxyflavanone]
[1]
  SI NGC (CC50/EC50): >6.47
[14]
  EC50: 15.5 µM
[15]
  CC50: > 100 µM
[16]
  EC50: 17.4 µM
[6]
  DENV NS3 protease IC50: 286.90 µg/mL
[17]
  Inhibition of DENV NS5 polymerase activity: not inhibit
[18]
  half-life: 12 to 14 min
[19]
  half-life: 47 min

## COc1c(I)c(O)c2c(c1I)OC(c1ccccc1)CC2=O (stereo not drawn) [TH012, 6,8-diiodo-5-hydroxy-7-methoxyflavanone]
[1]
  EC50: 2.8 ± 1.55 µM
  SI NGC (CC50/EC50): >3.5714
[2]
  CC50 at 48 h: > 10 µM
[3]
  Concentration above which compound was only partially dissolved: exceeded 10 µM

## O=C1CC(c2ccccc2)Oc2c(Br)c(O)c(Br)c(O)c21 (stereo not drawn) [TH011, 6,8-dibromo-5,7-dihydroxyflavanone]
[1]
  EC50: 2.06 ± 0.754 µM
  SI NGC (CC50/EC50): 32.5621
[7]
  EC50: 4.59 µM
  SI (16681) (CC50/EC50): (10.5201)
[2]
  CC50 at 48 h: 67.2 ± 0.973 µM
[8]
  CC50 at 48 h: > 100 µM
[9]
  CC50 at 48 h: 93.2 ± 5.99 µM
[10]
  CC50 at 48 h: > 100 µM
[11]
  CC50 at 48 h: 48.3 ± 4.11 µM
[12]; day 1 and 3
  ALT levels (hepatotoxicity): not obviously seen
[13]
  Inhibition of DENV envelope-induced fusion under acidic pH: no fusion inhibition observed
[3]
  Dissolution in culture media, DMSO and NSS: completely dissolved
